Results from PMC12720774, “Detergents alter the stability and lipid binding properties of the CD1d immunoreceptor” (Protein Science : A Publication of the Protein Society, 2025).
Values joined by “and” are separate entries in the source; they are usually repeats but may differ in a detail not shown here. Equal entries are not always repeated. Where two headings read alike, the source gives them in different places.

Assays:
AF647‐labeled hCD1d [1] = target: T1, AF647‐labeled hCD1d (Homo sapiens, UniProt P15813+P61769); experiment: Microscale thermophoresis (MST) binding assay
T1 construct: TEV protease cleavage site ENLYFQS (C); BirA biotinylation site (C); His7 (C); made in house; host or cells: TurboCHO cells (GenScript)
From the text: (§1) The experimental limitations of ITF, such as low instrument sensitivity, high sample consumption, signal overlap with some ligands, and low throughput (Fossum et al., [2023]), made it necessary to employ alternative, complementary assays to quantify detergent binding to hCD1d. […] MST measures the diffusion of fluorescent molecules in response to microscopic temperature gradients (Seidel et al., [2013]). When a protein forms a complex with a ligand, changes in hydrodynamic properties, charge, or solvation energy alter its thermophoretic behavior, allowing detection of binding events. To perform MST experiments, Alexa Fluor 647 (AF647) dye was covalently attached to the primary amines of hCD1d via standard N‐hydroxysuccinimide coupling chemistry (Anderson et al., [1964]). The concentration of AF647‐hCD1d was kept constant, and the change in MST signal was measured as a function of increasing detergent concentration (Figure S3). Like ITF, any lipid or detergent that destabilizes CD1 can also alter the MST signal since unfolding changes the protein's Stokes radius and its thermophoretic behavior. […] This is why we compare MST results with ITF and nanoDSF, as described below.
(§2) For MST, hCD1d was fluorescently labeled with AF647‐NHS Ester (Invitrogen #A20006). Briefly, a 10 mM stock of AF647‐NHS was prepared in anhydrous DMSO. Then, 100 μL of 50 μM hCD1d in 1X PBS pH 7.4 was mixed with 1 μL of 10 mM AF647‐NHS (1:2 molar ratio of protein: dye). The mixture was allowed to react for 1 h in the dark at 25°C. Unreacted dye was removed from the protein–dye conjugate by performing size exclusion chromatography in the dark with a Superdex 200 Increase 10/300 GL column at a flow rate of 0.5 mL/min in SEC buffer (100 mM NaCl, 20 mM sodium phosphate, pH 7.2). The degree of labeling was determined by a NanoDrop spectrophotometer at A647 nm (dye absorbance) and A280 nm (hCD1d absorbance). The degree of labeling was determined from the ratio of dye concentration to protein concentration. The degree of labeling was ~75%.
(§3) MST experiments were performed using a Monolith NT.115 instrument (NanoTemper Technologies) using Monolith standard capillaries and the red excitation laser setup. The following settings were applied for all MST experiments: excitation power: 30%–50%, MST power: medium, before MST time: 3 s, MST on time (IR laser): 20 seconds, and after MST time: 1 s. MST measurements were analyzed using the Monolith Affinity Analysis software v2.3 and exported for plotting in GraphPad Prism v10.1. Three replicates were performed, and data are presented as the mean ± standard deviation (n = 3).
(§4) MST measurements of 100 nM AF647‐hCD1d were acquired in the absence and presence of detergents in 1X PBS pH 7.4 at 25°C. Prior to data acquisition, hCD1d and detergent or lipid samples were incubated at 37°C overnight (~12 h) to simulate in vitro and in vivo loading conditions. […] For 18:1 LPC experiments: MST data of 100 nM AF647‐hCD1d were acquired in the absence and presence of 18:1 LPC in 1X PBS pH 7.4 at 25°C.

[2] = approximate, ref Anatrace catalogue, cited from earlier work
[3] = target: T2, recombinant human CD1d ectodomain/β2m complex (hCD1d) (Homo sapiens, UniProt P15813+P61769); experiment: Intrinsic tryptophan fluorescence (ITF) binding assay
T2 construct: TEV protease cleavage site ENLYFQS (C); BirA biotinylation site (C); His7 (C); made in house; host or cells: TurboCHO cells (GenScript)
Protocol: (§5) For ITF assays, the concentration of hCD1d was kept constant, and intrinsic Trp fluorescence (excitation at 285 nm, emission at 335 nm) was measured as a function of increasing detergent concentration (Fossum et al., [2023]) (Figure S2). The change in relative fluorescence intensity (F − F 0/F 0) provides an indication of binding. […] This was due to limited detergent solubility and decreased hCD1d stability in the presence of a large excess of detergent (see below). […] SDS was the exception, for which Trp fluorescence of hCD1d decreased with added detergent. This could indicate a unique conformational change or destabilization of the protein.
(§6) ITF spectra were recorded from 300 to 500 nm using a Horiba FL3‐21 Fluorometer with the excitation wavelength of 285 nm and excitation/emission slits of 6.2 nm. Fluorescence spectra of 50 to 100 nM hCD1d were acquired in the absence and presence of detergents in 1X PBS pH 7.4 at 25°C. Prior to data acquisition, hCD1d and detergent or lipid samples were incubated at 37°C overnight (~12 h) to simulate in vitro and in vivo loading conditions. […] For 18:1 LPC experiments, fluorescence spectra of 100 nM hCD1d were acquired in the absence and presence of 18:1 LPC in 1X PBS pH 7.4 at 25°C. […] For all ITF experiments, the change in fluorescence signal (F − F 0/F 0) was determined at 335 nm. Three replicates were performed, and data are presented as the mean ± standard deviation (n = 3). K D values were fitted with non‐linear regression in GraphPad Prism v10.1.

AF647‐labeled hCD1d [4] = target: T3, AF647‐labeled hCD1d (Homo sapiens, UniProt P15813); experiment: Microscale thermophoresis (MST) binding assay
T3 construct: TEV protease cleavage site ENLYFQS (C); BirA biotinylation site (C); His7 (C); made in house; host or cells: TurboCHO cells (GenScript)
From the text: as §1, §2, §3, §4

[5] = target: T4, recombinant human CD1d ectodomain/β2m complex (hCD1d) (Homo sapiens, UniProt P15813); experiment: Intrinsic tryptophan fluorescence (ITF) binding assay; conditions: detergent with 100 nM hCD1d, 25°C, 1X PBS pH 7.4; apparent; read-out: K D (ITF)
T4 construct: TEV protease cleavage site ENLYFQS (C); BirA biotinylation site (C); His7 (C); made in house; host or cells: TurboCHO cells (GenScript)
Protocol: as §5, §6

[6] = 0.001 M detergent, 100 nM AF647‐hCD1d
[7] = Figure 5B, detergent binding to hCD1d, read-out: MST - Kd (uM) average
[8] = detergent with 100 nM AF647‐labeled hCD1d, 25°C, apparent, read-out: K D (MST)

T2 sequence (P61769+P15813 fused): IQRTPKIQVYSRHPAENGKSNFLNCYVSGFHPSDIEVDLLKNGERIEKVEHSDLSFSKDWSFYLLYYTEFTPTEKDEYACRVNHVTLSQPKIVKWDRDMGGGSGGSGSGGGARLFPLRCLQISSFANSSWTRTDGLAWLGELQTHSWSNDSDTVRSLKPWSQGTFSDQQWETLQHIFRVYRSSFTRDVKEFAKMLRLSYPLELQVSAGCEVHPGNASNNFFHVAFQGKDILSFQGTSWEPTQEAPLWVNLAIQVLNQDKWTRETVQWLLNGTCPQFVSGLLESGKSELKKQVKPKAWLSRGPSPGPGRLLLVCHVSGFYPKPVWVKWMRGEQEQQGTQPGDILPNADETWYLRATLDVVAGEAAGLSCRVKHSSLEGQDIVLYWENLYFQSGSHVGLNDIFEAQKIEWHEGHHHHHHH
T1 sequence (P61769+P15813 fused): as above
T3 sequence (P15813 whole entry, looked up): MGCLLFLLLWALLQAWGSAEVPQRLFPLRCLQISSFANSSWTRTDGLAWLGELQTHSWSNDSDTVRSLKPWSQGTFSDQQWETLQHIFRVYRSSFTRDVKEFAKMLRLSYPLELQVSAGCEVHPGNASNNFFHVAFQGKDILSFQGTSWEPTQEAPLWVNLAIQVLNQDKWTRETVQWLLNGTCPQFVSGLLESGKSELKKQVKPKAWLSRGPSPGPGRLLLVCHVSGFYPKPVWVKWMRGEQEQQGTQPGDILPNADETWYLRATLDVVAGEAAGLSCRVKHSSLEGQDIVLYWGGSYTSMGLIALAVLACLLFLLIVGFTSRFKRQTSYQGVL
T4 sequence (P15813 whole entry, looked up, the tested form may be a part, one chain of several): as the sequence (P15813 whole entry, looked up) above

Row | Compound | Fnorm (rep 1-3) (AF647‐labeled hCD1d [1]; 3.05176e-8 M detergent) | Fnorm (rep 1-3) (AF647‐labeled hCD1d [1]; 6.10352e-8 M detergent) | Fnorm (rep 1-3) (AF647‐labeled hCD1d [1]; 1.2207e-7 M detergent) | Fnorm (rep 1-3) (AF647‐labeled hCD1d [1]; 2.44141e-7 M detergent) | Fnorm (rep 1-3) (AF647‐labeled hCD1d [1]; 4.88281e-7 M detergent) | Fnorm (rep 1-3) (AF647‐labeled hCD1d [1]; 9.76563e-7 M detergent) | Fnorm (rep 1-3) (AF647‐labeled hCD1d [1]; 1.95313e-6 M detergent) | Fnorm (rep 1-3) (AF647‐labeled hCD1d [1]; 3.90625e-6 M detergent) | Fnorm (rep 1-3) (AF647‐labeled hCD1d [1]; 7.8125e-6 M detergent) | Fnorm (rep 1-3) (AF647‐labeled hCD1d [1]; 1.5625e-5 M detergent) | Fnorm (rep 1-3) (AF647‐labeled hCD1d [1]; 3.125e-5 M detergent) | Fnorm (rep 1-3) (AF647‐labeled hCD1d [1]; 6.25e-5 M detergent) | Fnorm (rep 1-3) (AF647‐labeled hCD1d [1]; 0.000125 M detergent) | Fnorm (rep 1-3) (AF647‐labeled hCD1d [1]; 0.00025 M detergent) | Fnorm (rep 1-3) (AF647‐labeled hCD1d [1]; 0.0005 M detergent) | Fnorm (rep 1-3) (AF647‐labeled hCD1d [1]; [6]) | further results
1 | Tween 20 | 810.612 ‰ and 815.192 ‰ and 809.256 ‰ | 813.29 ‰ and 812.34 ‰ and 811.415 ‰ | 817.136 ‰ and 816.199 ‰ and 816.479 ‰ | 815.645 ‰ and 816.365 ‰ and 812.483 ‰ | 818.589 ‰ and 818.547 ‰ and 817.485 ‰ | 822.035 ‰ and 829.676 ‰ and 823.26 ‰ | 824.959 ‰ and 826.615 ‰ and 828.828 ‰ | 831.241 ‰ and 838.502 ‰ and 830.859 ‰ | 839.917 ‰ and 838.414 ‰ and 840.568 ‰ | 845.364 ‰ and 842.629 ‰ and 839.392 ‰ | 839.617 ‰ and 847.737 ‰ and 840.958 ‰ | 842.166 ‰ and 843.948 ‰ and 838.707 ‰ | 841.26 ‰ and 840.691 ‰ and 839.447 ‰ | 843.661 ‰ and 845.01 ‰ and 840.579 ‰ | 843.68 ‰ and 846.334 ‰ and 839.195 ‰ | 842.084 ‰ and 846.496 ‰ and 844.53 ‰ | Kd (AF647‐labeled hCD1d [1]; [7]): 1.79 µM; Kd (AF647‐labeled hCD1d [1]; [8]): 1.8 ± 0.5 µM; CMC [2]: 59 µM; CMC ([2]; weight/volume): 0.0072%; F-F0/F0 (rep 1-3) ([3]; 3.0518e-8 M detergent): 0; F-F0/F0 (rep 1-3) ([3]; 7.8125e-6 M detergent): 0.397 and 0.3783 and 0.411; F-F0/F0 (rep 1-3) ([3]; 1.5625e-5 M detergent): 0.321 and 0.292 and 0.428; F-F0/F0 (rep 1-3) ([3]; 3.125e-5 M detergent): 0.321 and 0.2971 and 0.409; F-F0/F0 (rep 1-3) ([3]; 6.25e-5 M detergent): 0.469 and 0.4298 and 0.387; F-F0/F0 (rep 1-3) ([3]; 0.000125 M detergent): 0.384 and 0.3339 and 0.39; F-F0/F0 (rep 1-3) ([3]; 0.00025 M detergent): 0.511 and 0.3507 and 0.554; F-F0/F0 (rep 1-3) ([3]; 0.0005 M detergent): 0.462 and 0.3634 and 0.631; Kd ([3]; Figure 5A, detergent binding to hCD1d, read-out: ITF - Kd (uM) average): 4.9 µM; Kd ([3]; detergent with 100 nM hCD1d, 25°C, 1X PBS pH 7.4, apparent, read-out: K D (ITF)): 4.9 ± 0.7 µM
2 | C[C@H](CCC(=O)O)[C@H]1CC[C@H]2[C@@H]3CC[C@@H]4C[C@H](O)CC[C@]4(C)[C@H]3C[C@H](O)[C@]12C [Deoxycholate, sodium deoxycholate] | 795.701 ‰ and 796.724 ‰ and 797.98 ‰ | 794.625 ‰ and 796.029 ‰ and 797.315 ‰ | 793.156 ‰ and 796.701 ‰ and 795.845 ‰ | 795.335 ‰ and 795.616 ‰ and 795.028 ‰ | 795.887 ‰ and 794.029 ‰ and 796.702 ‰ | 796.103 ‰ and 795.392 ‰ and 796.86 ‰ | 795.057 ‰ and 792.832 ‰ and 795.608 ‰ | 796.418 ‰ and 796.702 ‰ and 795.904 ‰ | 795.548 ‰ and 798.002 ‰ and 797.636 ‰ | 795.128 ‰ and 798.849 ‰ and 799.048 ‰ | 798.119 ‰ and 798.444 ‰ and 799.423 ‰ | 800.962 ‰ and 799.886 ‰ and 803.305 ‰ | 801.785 ‰ and 804.744 ‰ and 805.19 ‰ | 804.206 ‰ and 807.083 ‰ and 805.968 ‰ | 808.515 ‰ and 808.171 ‰ and 806.841 ‰ | 814.33 ‰ and 809.551 ‰ and 810.963 ‰ | Kd (AF647‐labeled hCD1d [4]; [7]): 103 µM; Kd (AF647‐labeled hCD1d [4]; [8]): > 10000 µM; binding to hCD1d by MST (in words) (AF647‐labeled hCD1d [1]): observable binding; binding to hCD1d by ITF (in words) [3]: No significant binding; Kd [5]: > 10000 µM
